Reference: US8541596B2, “Inhibitors” (Probiodrug AG, priority 2010, dated 2013)

biological target: hQC (Homo sapiens (Human), UniProt Q16769); test: QC inhibitor assay (fluorometric/spectrophotometric QC activity assay with inhibitor added); format: biochemical; conditions: bound
Experimental: All measurements were performed with a BioAssay Reader HTS-7000Plus for microplates (Perkin Elmer) at 30° C. QC activity was evaluated fluorometrically using H-Gln-βNA. The samples consisted of 0.2 mM fluorogenic substrate, 0.25 U pyroglutamyl aminopeptidase (Unizyme, Høsholm, Denmark) in 0.2 M Tris/HCl, pH 8.0 containing 20 mM EDTA and an appropriately diluted aliquot of QC in a final volume of 250 μl. Excitation/emission wavelengths were 320/410 nm. The assay reactions were initiated by addition of glutaminyl cyclase. QC activity was determined from a standard curve of /3-naphthylamine under assay conditions. One unit is defined as the amount of QC catalyzing the formation of 1 μmol pGlu-βNA from H-Gln-/3NA per minute under the described conditions.
In a second fluorometric assay, QC was activity determined using H-Gln-AMC as substrate. Reactions were carried out at 30° C. utilizing the NOVOStar reader for microplates (BMG labtechnologies). The samples consisted of varying concentrations of the fluorogenic substrate, 0.1 U pyroglutamyl aminopeptidase (Qiagen) in 0.05 M Tris/HCl, pH 8.0 containing 5 mM EDTA and an appropriately diluted aliquot of QC in a final volume of 250 μl. Excitation/emission wavelengths were 380/460 nm. The assay reactions were initiated by addition of glutaminyl cyclase. QC activity was determined from a standard curve of 7-amino-4-methylcoumarin under assay conditions. The kinetic data were evaluated using GraFit software.
This novel assay was used to determine the kinetic parameters for most of the QC substrates. […] Samples consisted of the respective QC substrate, 0.3 mM NADH, 14 mM a-Ketoglutaric acid and 30 U/ml glutamate dehydrogenase in a final volume of 250 μl. Reactions were started by addition of QC and persued by monitoring of the decrease in absorbance at 340 nm for 8-15 min.
The initial velocities were evaluated and the enzymatic activity was determined from a standard curve of ammonia under assay conditions. All samples were measured at 30° C., using either the […]uor Plus or the Sunrise (both from TECAN) reader for microplates. Kinetic data was evaluated using GraFit software.
For inhibitor testing, the sample composition was the same as described above, except for the putative inhibitory compound added. For a rapid test of QC-inhibition, samples contained 4 mM of the respective inhibitor and a substrate concentration at 1 KM. For detailed investigations of the inhibition and determination of K,-values, influence of the inhibitor on the auxiliary enzymes was investigated first. […] The inhibitory constant was evaluated by fitting the set of progress curves to the general equation for competitive inhibition using GraFit software.

hQC, sequence (Q16769 29-361): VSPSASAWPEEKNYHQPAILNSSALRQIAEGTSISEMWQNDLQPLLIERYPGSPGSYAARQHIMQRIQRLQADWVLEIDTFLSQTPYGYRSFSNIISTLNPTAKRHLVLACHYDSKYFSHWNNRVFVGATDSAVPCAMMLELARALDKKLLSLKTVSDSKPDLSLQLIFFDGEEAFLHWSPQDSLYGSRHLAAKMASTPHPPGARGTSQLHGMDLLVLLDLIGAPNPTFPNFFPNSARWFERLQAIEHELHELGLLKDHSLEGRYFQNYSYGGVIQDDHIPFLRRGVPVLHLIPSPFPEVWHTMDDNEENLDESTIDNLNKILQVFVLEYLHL

| SMILES | IC50 [µM] |
| --- | --- |
| c1ccc(CN(Cc2ccccc2)c2ccc3[nH]cnc3c2)cc1 [Example 10, N,N-Dibenzyl-1H-benzo[d]imidazol-5-amine] | < 10 |
| CSc1ccc(CNc2ccc3[nH]cnc3c2)cc1 [Example 11, N-(4-(Methylthio)benzyl)-1H-benzo[d]imidazol-5-amine] | < 10 |
| N#Cc1ccc(CN(Cc2ccc(C#N)cc2)c2ccc3[nH]cnc3c2)cc1 [Example 19, N,N-Bis(4-cyanobenzyl)-1H-benzo[d]imidazol-5-amine] | < 10 |
| Brc1ccc(CN(Cc2ccc(Br)cc2)c2ccc3[nH]cnc3c2)cc1 [Example 27, N,N-Bis(4-bromobenzyl)-1H-benzo[d]imidazol-5-amine] | < 10 |
| c1ccc2sc(CN(Cc3nc4ccccc4s3)c3ccc4[nH]cnc4c3)nc2c1 [Example 34, N,N-Bis((benzo[d]thiazol-2-yl)methyl)-1H-benzo[d]imidazol-5-amine] | < 10 |
| Cc1ccc2cc(CN(Cc3ccc4nc(C)ccc4c3)c3ccc4[nH]cnc4c3)ccc2n1 [Example 37, N,N-Bis((2-methylquinolin-6-yl)methyl)-1H-benzo[d]imidazol-5-amine] | < 10 |
| Cc1c(F)c(F)c(CNc2ccc3[nH]cnc3c2)c(F)c1F [Example 44, N-(2,3,5,6-Tetrafluoro-4-methylbenzyl)-1H-benzo[d]imidazol-5-amine] | < 10 |
| Clc1ccc2scc(CNc3ccc4[nH]cnc4c3)c2c1 [Example 49, N-((5-Chlorobenzo[b]thiophen-3-yl)methyl)-1H-benzo[d]imidazol-5-amine] | < 10 |
| CSc1ccc(CN(Cc2cc(F)cc(F)c2)c2ccc3[nH]cnc3c2)cc1 [Example 59, N-(3,5-Difluorobenzyl)-N-(4-(methylthio)benzyl)-1H-benzo[d]imidazol-5-amine] | < 10 |
| CSc1ccc(CN(Cc2cc(F)c(F)c(F)c2)c2ccc3[nH]cnc3c2)cc1 [Example 60, N-(3,4,5-Trifluorobenzyl)-N-(4-(methylthio)benzyl)-1H-benzo[d]imidazol-5-amine] | < 10 |
| CSc1ccc(CN(Cc2c(F)c(F)c(C)c(F)c2F)c2ccc3[nH]cnc3c2)cc1 [Example 62, N-(2,3,5,6-Tetrafluoro-4-methylbenzyl)-N-(4-(methylthio)benzyl)-1H-benzo[d]imidazol-5-amine] | < 10 |
| CSc1ccc(CN(Cc2nc3ccccc3s2)c2ccc3[nH]cnc3c2)cc1 [Example 66, N-(4-(Methylthio)benzyl)-N-((benzo[d]thiazol-2-yl)methyl)-1H-benzo[d]imidazol-5-amine] | < 10 |
| CCc1ccc(CN(Cc2ccc(SC)cc2)c2ccc3[nH]cnc3c2)cc1 [Example 69, N-(4-(Methylthio)benzyl)-N-(4-ethylbenzyl)-1H-benzo[d]imidazol-5-amine] | < 10 |
| CCc1ccc(CN(Cc2cc(F)c(F)c(F)c2)c2ccc3[nH]cnc3c2)cc1 [Example 71, N-(3,4,5-Trifluorobenzyl)-N-(4-ethylbenzyl)-1H-benzo[d]imidazol-5-amine] | < 10 |
| CCc1ccc(CN(Cc2ccc(C#N)cc2)c2ccc3[nH]cnc3c2)cc1 [Example 72, N-(4-Cyanobenzyl)-N-(4-ethylbenzyl)-1H-benzo[d]imidazol-5-amine] | < 10 |
| CCc1ccc(CN(Cc2nc3ccccc3s2)c2ccc3[nH]cnc3c2)cc1 [Example 74, N-(4-Ethylbenzyl)-N-((benzo[d]thiazol-2-yl)methyl)-1H-benzo[d]imidazol-5-amine] | < 10 |
| COc1ccc(CN(Cc2ccc3nsnc3c2)c2ccc3[nH]cnc3c2)cc1 [Example 76, N-(4-Methoxybenzyl)-N-((benzo[c][1,2,5]thiadiazol-6-yl)methyl)-1H-benzo[d]imidazol-5-amine] | < 10 |
| Cc1ccc(CN(Cc2ccc(N(C)C)cc2)c2ccc3[nH]cnc3c2)cc1 [Example 78, N-(4-(Dimethylamino)benzyl)-N-(4-methylbenzyl)-1H-benzo[d]imidazol-5-amine] | < 10 |
| CN(C)c1ccc(CN(Cc2ccc3nsnc3c2)c2ccc3[nH]cnc3c2)cc1 [Example 81, N-(4-(Dimethylamino)benzyl)-N-((benzo[c][1,2,5]thiadiazol-5-yl)methyl)-1H-benzo[d]imidazol-5-amine] | < 10 |
| CCCCN(Cc1ccc(SC)cc1)c1ccc2[nH]cnc2c1 [Example 83, N-(4-(Methylthio)benzyl)-N-butyl-1H-benzo[d]imidazol-5-amine] | < 10 |
| COc1ccc(CN(Cc2ccccc2)c2ccc3nc[nH]c3c2)cc1 [Example 86, N-(4-Methoxybenzyl)-N-benzyl-3H-benzo[d]imidazol-5-amine] | < 10 |
| COc1ccc(CN(CCCc2ccccc2)c2ccc3nc[nH]c3c2)cc1 [Example 89, N-(4-Methoxybenzyl)-N-(3-phenylpropyl)-3H-benzo[d]imidazol-5-amine] | < 10 |
